Laboratory results reported in patent US8476455B2, “1-N-phenyl-amino-1h-imidazole derivatives and pharmaceutical compositions containing them” (Laboratoire Theramex, priority 2003, dated 2013).

Experiments:
steroid sulfatase = assay: Anti uterotrophic/anti steroid sulfatase activity in vivo; set-up: species or system rat; conditions: ovariectomized Wistar female rats, E1S 50 μg/kg/day s.c., oral 1 mg/kg/day for 4 days; % of inhibition of the E1S induced stimulation
Protocol: Wistar female rats were ovariectomized and left to rest for 4 weeks. Prior to treatment, the absence of cyclicity was checked by vaginal smears. Animals were supplemented with estrone sulfate (EIS) at 50 μg/kg/day s.c., alone or combined with oral administration of potential sulfatase inhibitors, at 1 mg/kg/day for 4 days. The uteri were removed, freed of adjacent tissue and wet weighed (Table 3).
Estrone sulfatase activity is measured according to the method described by Purohit et al., with slight modifications. Briefly, uteri were thawed, weighed and homogenized. Aliquots of the supernatant were treated with dextran-coated charcoal and assayed for sulfatase. E1S activity is assessed after 30 min of incubation with 5 nM of ^3H-E1S and 20 μM of unlabelled E1S as substrate. Estrone sulfatase activity is expressed as pmol/h/mg protein and reported as percentage of inhibition vs E1S; for uterus weights, results are expressed as % of inhibition of the E1S induced stimulation

human estrone sulfatase = biological target: T1, human estrone sulfatase (Homo sapiens, UniProt P08842); assay: Steroid (estrone) sulfatase activity alone in JEG-3 cells; type: cell-based; conditions: footnote b: sulfatase activity alone, nd: not detected, read-out: Sulfatase activity IC50 (nM) ± S.E.M.
T1 construct: The JEG-3 cell line is intrinsically very rich in human estrone sulfatase; endogenous in cells; host or cells: JEG-3 (human placental choriocarcinoma)
T1 sequence (P08842 22-583): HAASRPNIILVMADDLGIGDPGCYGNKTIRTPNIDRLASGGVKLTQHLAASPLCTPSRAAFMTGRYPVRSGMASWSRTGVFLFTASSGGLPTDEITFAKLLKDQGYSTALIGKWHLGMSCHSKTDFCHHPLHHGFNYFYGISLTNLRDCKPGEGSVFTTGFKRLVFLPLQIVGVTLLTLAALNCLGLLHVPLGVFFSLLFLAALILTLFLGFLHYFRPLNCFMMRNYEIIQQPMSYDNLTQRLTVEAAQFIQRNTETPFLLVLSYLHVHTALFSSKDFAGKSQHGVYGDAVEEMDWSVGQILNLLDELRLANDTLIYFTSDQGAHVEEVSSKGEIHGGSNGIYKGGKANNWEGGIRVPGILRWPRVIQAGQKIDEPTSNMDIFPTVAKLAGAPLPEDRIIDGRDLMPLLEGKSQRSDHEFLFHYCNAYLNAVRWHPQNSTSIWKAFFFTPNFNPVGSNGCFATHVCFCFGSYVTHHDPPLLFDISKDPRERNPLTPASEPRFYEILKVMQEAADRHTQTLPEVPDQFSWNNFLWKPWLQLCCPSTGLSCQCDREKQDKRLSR
Protocol: (§1) The JEG-3 cell line is intrinsically very rich in human estrone sulfatase and therefore is a useful biological system to evaluate new steroid sulfatase inhibitors in vitro. Assays were carried out with cells in logarithmic growth phase on 96-well microplates. 24 h before studies, cells were seeded in decomplemented fetal calf serum (dFCS) supplemented medium. The medium was removed 24 h later and cells were rinsed with PBS to eliminate any trace of dFCS. Then, ^3H-E1S was added in dFCS free medium, followed by test compounds at concentrations ranging from 10^−12 M to 10^−5 M. After 4 h of treatment, the medium was transferred into 96-deep-well microplates and centrifuged at 200×g for 10 min to pellet cells before toluene extraction. A fraction of the medium was used for toluene extraction in order to separate the conjugated substrate from non-conjugated products. The radioactivity in the toluene phase was measured by liquid scintillation counting. In parallel, after cell solubilization in a ethylenediamine tetraacetate solution, DNA content was measured by a standard fluorimetric method using the Hoechst 33258 fluorochrome. Finally, estrone sulfatase activity was expressed in pmoles of ^3H-E1+^3H-E2 formed/4 hours/mg DNA and estrone sulfatase inhibition as a percentage of control activity without inhibitor.

human steroid sulfatase = biological target: T2, human steroid sulfatase (Homo sapiens, UniProt P08842); assay: Dual aromatase and steroid sulfatase activities in JEG-3 cells: sulfatase readout; type: cell-based; conditions: footnote c: dual aromatase and sulfatase activity, nd: not detected, read-out: Sulfatase activity IC50 (nM) ± S.E.M.
T2 construct: The JEG-3 cell line is intrinsically very rich in human estrone sulfatase; endogenous in cells; host or cells: JEG-3 (human placental choriocarcinoma)
T2 sequence (P08842 22-583): T1 sequence (P08842 22-583)
Protocol: as §1
(§2) In order to evaluate the inhibitory potency of DASI compounds in parallel on both human aromatase and steroid sulfatase activities, a new in vitro model was set up using JEG-3 cells. The experimental conditions of the steroid sulfatase model previously described was adopted with slight modifications: the presence of the two substrates ^3-HE1S and 1β-^3H-androstenedione into the medium and an incubation period of 2 hours. Results were expressed in pmoles of product formed (^3H-E1+^3H-E2 or ^3H2O)/2 hours/mg DNA (Table 1).

human aromatase [1] = biological target: T3, human aromatase (Homo sapiens, UniProt P11511); assay: Aromatase activity alone, tritiated water method in JEG-3 cells; type: cell-based; conditions: footnote a: aromatase activity alone, nd: not detected, read-out: Aromatase activity IC50 (nM) ± S.E.M.
T3 construct: The JEG-3 cell line, derived from a human placental choriocarcinoma, constitutively overexpresses human aromatase; endogenous in cells; host or cells: JEG-3 (human placental choriocarcinoma)
T3 sequence (P11511 1-503): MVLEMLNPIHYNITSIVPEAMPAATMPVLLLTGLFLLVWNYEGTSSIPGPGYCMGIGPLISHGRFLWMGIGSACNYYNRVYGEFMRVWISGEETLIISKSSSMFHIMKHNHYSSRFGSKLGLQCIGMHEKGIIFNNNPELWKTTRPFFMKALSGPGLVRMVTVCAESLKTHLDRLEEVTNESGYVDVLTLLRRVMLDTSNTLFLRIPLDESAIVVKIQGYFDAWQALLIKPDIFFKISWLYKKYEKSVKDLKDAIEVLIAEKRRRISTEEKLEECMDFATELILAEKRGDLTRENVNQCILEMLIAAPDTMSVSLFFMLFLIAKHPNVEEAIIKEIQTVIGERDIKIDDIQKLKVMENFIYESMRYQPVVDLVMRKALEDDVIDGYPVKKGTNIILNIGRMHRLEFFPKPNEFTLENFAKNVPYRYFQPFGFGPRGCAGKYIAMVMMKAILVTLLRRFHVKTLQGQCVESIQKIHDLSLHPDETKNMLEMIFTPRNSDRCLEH
Protocol: The JEG-3 cell line, derived from a human placental choriocarcinoma, constitutively overexpresses human aromatase and represents a relevant model for assaying putative aromatase inhibitors in vitro. Aromatase activity was determined by the tritiated water method. In brief, cells were first seeded into 96-well microplates in decomplemented fetal calf serum (dFCS) supplemented medium. 24 hours later, cells were rinsed and fresh medium containing 1β-^3H-androstenedione as aromatase substrate was added together with test compounds at concentrations ranging from 10^−12 M to 10^−5 M. After 2 hours of incubation, a fraction of the medium was transferred to homologous new 96-well microplates and a dextran-coated charcoal solution was added to each well. Following standing on ice for 10 minutes, microplates were centrifuged (1500 g; 4° C.). All steroids, including the radioactive substrate and the newly biosynthesized estrogens, were adsorbed on charcoal; only ^3H-water specifically formed during aromatisation of 1β-^3H-androstenedione, remained in the supernatant. The radioactivity in the supernatant was measured by liquid scintillation counting. In parallel, cell solubilization was performed in ethylenediamine tetraacetate solution. […] Finally, aromatase activity was expressed in fmoles of ^3H-water formed/2 hours/μg DNA and aromatase inhibition as a percentage of control activity without inhibitor.

Ishikawa cells = assay: Alkaline phosphatase activity in Ishikawa cells (estrogenic potency); type: cell-based
Protocol: Ishikawa cells were plated into 96-well microplates 48 hours before studies. The next day, the medium was replaced by phenol red free medium supplemented with 5% charcoal-stripped dFCS. 24 hours later, the medium was renewed and compounds were added to the plated cells and incubated for an additional four-day period. […] At the end of the incubation period, alkaline phosphatase activity (APase) was assayed by a method involving the hydrolysis of p-nitrophenyl phosphate to p-nitrophenol and spectrophotometric determination of the product at 405 nm.
In brief, the microplates were first rinsed twice with cold phosphate buffered solution and then placed at −80° C. for at least 15 minutes. After thawing at room temperature, 50 μl ice-cold solution containing 5 mM p-nitrophenyl phosphate was added to each well. After a 15 to 60 minute incubation period at room temperature, the intensity of the yellow color generated by the production of p-nitrophenol was measured into each well at 405 nm.
For each tested concentration, APase activity, reflected by absorbance, was first expressed as fold increase over control (FI) and then as percentage of E2 activity (10^-8 M) chosen equal to 100%.

human aromatase [2] = biological target: T3, human aromatase; assay: Dual aromatase and steroid sulfatase activities in JEG-3 cells: aromatase readout; type: cell-based; conditions: footnote c: dual aromatase and sulfatase activity, nd: not detected, read-out: Aromatase activity IC50 (nM) ± S.E.M.
Protocol: as §1, with “Assays” for “The JEG-3 cell line is intrinsically very rich in human estrone sulfatase and therefore is a useful biological system to evaluate new steroid sulfatase inhibitors in vitro. Assays”, “In parallel, after cell solubilization in a ethylenediamine tetraacetate solution, DNA content was measured by a standard fluorimetric method using the Hoechst 33258 fluorochrome.” left out
as §2

[3] = biological target: human carbonic anhydrase II (Homo sapiens, UniProt P00918); assay: Human carbonic anhydrase II activity (p-nitrophenyl acetate, colorimetric); type: biochemical; conditions: read-out: Human carbonic anhydrase II activity IC50 (nm) ± S.E.M.
Protocol: Briefly, in this assay, human carbonic anhydrase II catalyses the conversion of p-nitrophenyl acetate into pnitrophenol. The potential inhibitory effect of test compounds was evaluated by colorimetric determination of prnitrophenol produced during the enzymatic reaction. The optical density levels obtained without inhibitor will be referred to as “total activity”. The levels obtained without Inhibitor and without the enzyme will be referred to as “blank” in order to assess any interference with the substrate during the assay (Table 2).

aromatase [4] = assay: Inhibition of estradiol peak, in vivo aromatase inhibition model; set-up: species or system rat; conditions: female rats, 24 hours after one oral administration
Protocol: One hundred IOPS Wistar female rats, weighing 180 to 200 g, were accommodated by four in stainless steel mesh cages. […] Vaginal smears were performed for each animal, each morning, in order to establish the different phases of cycle. […] Starting at 4.00 pm, animals received an oral administration of formulations. 24 hours later, samples of serum were collected and estradiol level were determined as previously described (Table 4).

aromatase [5] = conditions: 3 μg/kg, 24 hours after one single oral administration in female rats; cited from earlier work

| Structure (SMILES) | IC50 (human estrone sulfatase) [nM] | IC50 (human aromatase [1]) [nM] | melting point [°C] | further results |
| --- | --- | --- | --- | --- |
| NS(=O)(=O)Oc1ccc2c3c(c(=O)oc2c1)CCCCC3 [6,6,7 COUMATE, 6,6,7-COUMATE, reference compound] | – | – | – | % inhibition (uterus weight) (steroid sulfatase): 81% |
| NS(=O)(=O)Oc1ccc2c(c1)S(=O)(=O)C=C2CC1CCCCCC1 [A*, sulfamic acid, 3-cycloheptylmethylbenzothiophen-6-yl-1,1-dioxide-ester, reference compound] | 2.5 ± 0.5 | – | – | IC50 (human steroid sulfatase): 3.6 ± 0.8 nM |
| N#Cc1ccc(N(Cc2ccc(OS(N)(=O)=O)cc2)n2ccnc2)cc1 [Ex 43, Sulfamic acid-4-{[N-(4-cyanophenyl)-N-(1H-imidazol-1yl)amino]methyl}phenyl ester] | ~10 | 0.57 ± 0.16 | 172 | estrogenicity in vitro (in words) (Ishikawa cells): not estrogenic |
| COc1cc(CN(c2ccc(C#N)cc2)n2ccnc2)ccc1OS(N)(=O)=O [Ex 46, Sulfamic acid 2-methoxy-4-{[N-(4-cyanophenyl)-N-(1H-imidazol-1yl)amino]methyl}phenyl ester] | 13.8 ± 2.5 | 0.79 ± 0.26 | 211 | estrogenicity in vitro (in words) (Ishikawa cells): not estrogenic |
| N#Cc1ccc(N(Cc2ccc3c(c2)C=NS(=O)(=O)O3)n2ccnc2)cc1 [Ex 48, 4-[N-[(2,2-dioxido-1,2,3-benzoxathiazin-6-yl)methyl]-N-(1H-imidazol-1-yl)amino]benzonitrile] | 2660 ± 257 | 0.82 ± 0.12 | 180 | – |
| N#Cc1ccc(N(CCOc2ccc(OS(N)(=O)=O)cc2)n2ccnc2)cc1 [Ex 51, Sulfamic acid 4-{2-[N-(4-cyanophenyl)-N-(1H-imidazol-1yl)amino]ethoxy}phenyl ester] | – | – | 174 | IC50 (human aromatase [2]): 0.34 ± 0.13 nM; IC50 (human steroid sulfatase): 597 ± 67.4 nM; IC50 [3]: 6.5 ± 0.9 nM |
| CC(C)(C#N)c1cc(Cn2cncn2)cc(C(C)(C)C#N)c1 [anastrozole, reference compound] | – | – | – | % inhibition (estradiol peak) (aromatase [4]): 56%; estradiol levels (in words) (aromatase [5]): significantly inhibits |
